The text below walks through data of US10793568B2, “Hormone receptor modulators for treating metabolic conditions and disorders” (ARDELYX, INC., priority 2016, dated 2020).

Read-outs that look alike come from different tables or passages of the source.

The target in assay [1] is ligand binding domain of human FXR (Homo sapiens (Human), UniProt Q96RI1). The assay is described as follows: FXR ligand binding assay (LanthaScreen TR-FRET, SRC2-2 peptide recruitment). The conditions noted are these: for pEC50: -log EC50, concentration required to produce 50% activation; for Emax: read-out: % Efficacy. For orientation: TR-FRET usually uses a lanthanide donor and a delayed reading to cut background.

The target in assay [2] is human Farnesoid X receptor ligand-binding domain/Gal4 DNA binding domain chimera (Homo sapiens (Human), UniProt Q96RI1). Nature of the assay: Cell-based assay of FXR activation (FXR-UAS-bla HEK 293T beta-lactamase reporter). The conditions noted are these: cellular FXR beta-lactamase reporter assay; for Emax: HEK-293T, read-out: % Efficacy. The essentials:
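HEK 293T cells stably expressing a Gal4-fused human FXR LBD and a UAS-driven beta-lactamase reporter were incubated with serially diluted compounds for 16 h at 37 °C in phenol red-free DMEM with 2% charcoal-stripped FBS. CCF4 FRET read-out: excitation 409 nm, emission 447 nm. pEC50 comes from a 3-parameter logistic fit, and efficacy is given as % of GW4064.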
In general terms: In a reporter assay the amount or activity of a reporter protein is the signal.

Where [3] appears, read: extent of activation relative to GW4064.
[4] abbreviates: FXR-UAS-bla HEK 293T cells, 16 h, pEC50 = -log EC50.

Sequence of human Farnesoid X receptor ligand-binding domain/Gal4 DNA binding domain chimera (Q96RI1 262-486, change not shown): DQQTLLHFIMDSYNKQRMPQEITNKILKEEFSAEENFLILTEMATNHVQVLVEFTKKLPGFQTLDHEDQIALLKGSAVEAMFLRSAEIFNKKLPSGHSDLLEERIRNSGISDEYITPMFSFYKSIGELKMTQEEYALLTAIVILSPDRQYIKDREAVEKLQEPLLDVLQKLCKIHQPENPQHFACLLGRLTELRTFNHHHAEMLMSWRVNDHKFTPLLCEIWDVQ
Sequence of human Farnesoid X receptor ligand-binding domain/Gal4 DNA binding domain chimera (P04386 1-147 partner): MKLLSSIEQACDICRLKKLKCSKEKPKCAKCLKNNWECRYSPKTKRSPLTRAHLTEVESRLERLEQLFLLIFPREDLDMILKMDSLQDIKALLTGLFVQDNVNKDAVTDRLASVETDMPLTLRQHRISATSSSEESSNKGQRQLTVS
Sequence of ligand binding domain of human FXR (Q96RI1 262-486): as the sequence (Q96RI1 262-486, change not shown) above

A word on the pEC50: it is −log10 of the EC50, conventionally taken in molar units. Consider `O=C(O)c1cc([C@H]2C[C@H]3CC[C@@H](C2)O3)c2nc(N3C[C@@H]4C[C@H]3C[C@H]4OCc3c(-c4c(Cl)cccc4Cl)noc3C3CC3)sc2c1` [Compound I-255, 2-[(1S,4S,5R)-5-{[5-cyclopropyl-3-(2,6-dichlorophenyl)-1,2-oxazol-4-yl]methoxy}-2-azabicyclo[2.2.1]heptan-2-yl]-4-[(1R,3R,5S)-8-oxabicyclo[3.2.1]octan-3-yl]-1,3-benzothiazole-6-carboxylic Acid], for which the pEC50 amounted to 8.4 in assay [1] and 9.3 in assay [2] (setting [4]). Further, the “% Efficacy” value came to 150% in assay [1] (setting [3]) and 104% in assay [2] (setting [3]).

As a reminder, the EC50 is the concentration needed to bring the measured effect to its halfway point. A higher EC50 goes with weaker potency. For the compound `Cc1cc(N2C(=O)[C@@H]3C[C@H]2C[C@H]3OCc2c(-c3c(Cl)cccc3Cl)noc2C2CC2)ccc1C(=O)O` [Compound I-316, 4-[(1S,4R,5R)-5-{[5-cyclopropyl-3-(2,6-dichlorophenyl)-1,2-oxazol-4-yl]methoxy}-3-oxo-2-azabicyclo[2.2.1]heptan-2-yl]-2-methylbenzoic Acid], the pEC50 in assay [1] worked out at 7.6. Further, the Emax in assay [1] (setting [3]) was 152%; in assay [2] (setting [3]) it was 109%. This compound showed an EC50 in assay [2] (setting [4]) of 7.94 nM.

On to `O=C(NS(=O)(=O)C1CCCC1)c1ccc(N2C(=O)[C@@H]3C[C@H]2C[C@H]3OCc2c(-c3c(Cl)cccc3Cl)noc2C2CC2)cc1` [Compound I-343, N-(cyclopentylsulfonyl)-4-((1S,4R,5R)-5-((5-cyclopropyl-3-(2,6-dichlorophenyl)isoxazol-4-yl)methoxy)-3-oxo-2-azabicyclo[2.2.1]heptan-2-yl)benzamide], for which the negative-log EC50 (pEC50) in assay [1] was 9. In addition, the Emax amounted to 176% in assay [1] (setting [3]) and 105% in assay [2] (setting [3]). In assay [2] (setting [4]), this compound showed an EC50 of 0.1 nM.

Compound `O=C(O)c1ccc(N2C[C@@H]3C[C@H]2C[C@H]3OCc2c(-c3c(Cl)cccc3Cl)noc2C2CC2)nc1` [Compound I-55, 6-[(1S,4S,5R)-5-{[5-cyclopropyl-3-(2,6-dichlorophenyl)-1,2-oxazol-4-yl]methoxy}-2-azabicyclo[2.2.1]heptan-2-yl]pyridine-3-carboxylic Acid] returned a pEC50 in assay [1] of 7.9. Besides, the Emax in assay [1] (setting [3]) was found to be 121%; in assay [2] (setting [3]), 104%. This compound had a 50% effective concentration (EC50) in assay [2] (setting [4]) of 3.16 nM.

In the case of `O=C(O)c1c(F)cc(N2C[C@@H]3C[C@H]2C[C@H]3OCc2c(-c3c(Cl)cccc3Cl)noc2C2CC2)cc1F` [Compound I-104, 4-[(1S,4S,5R)-5-{[5-cyclopropyl-3-(2,6-dichlorophenyl)-1,2-oxazol-4-yl]methoxy}-2-azabicyclo[2.2.1]heptan-2-yl]-2,6-difluorobenzoic Acid], the negative logarithm of the EC50 (pEC50) in assay [1] came to 9.4. Further, the Emax in assay [1] (setting [3]) was 156%; in assay [2] (setting [3]), 104%. Further, in assay [2] (setting [4]), a half-maximal response (EC50) required 3.16 nM.

Turning to `O=C(O)c1cc(F)c2nc(N3C[C@H]4C[C@@H]3[C@H](OCc3c(-c5c(Cl)cccc5Cl)noc3C3CC3)C4)sc2c1` [Compound I-65, 2-[(1R,4S,6R)-6-{[5-cyclopropyl-3-(2,6-dichlorophenyl)-1,2-oxazol-4-yl]methoxy}-2-azabicyclo[2.2.1]heptan-2-yl]-4-fluoro-1,3-benzothiazole-6-carboxylic Acid], in assay [1], the pEC50 worked out at 6.9 and the Emax came out at 45%. For the same compound, in assay [2] (setting [3]), the Emax came to 52%. The same compound had a concentration for a half-maximal effect (EC50) in assay [2] (setting [4]) of 100 nM.

`O=C(O)c1cc(C2CC2)c2nc(N3C[C@@H]4C[C@H]3C[C@H]4OCc3c(-c4c(Cl)cccc4Cl)noc3C3CC3)sc2c1` [Compound I-14, 4-cyclopropyl-2-[(1S,4S,5R)-5-{[5-cyclopropyl-3-(2,6-dichlorophenyl)-1,2-oxazol-4-yl]methoxy}-2-azabicyclo[2.2.1]heptan-2-yl]-1,3-benzothiazole-6-carboxylic acid]: the negative-log EC50 (pEC50) in assay [1] is 8.6. Also, the Emax in assay [1] (setting [3]) was determined as 146%; in assay [2] (setting [3]) it was 111%. The compound further had a concentration giving a half-maximal response (EC50) in assay [2] (setting [4]) of 0.1 nM.

Take `Cc1cccc(Cl)c1-c1noc(C2CC2)c1CO[C@@H]1C[C@@H]2C[C@H]1CN2c1ccc(CCC(=O)NS(=O)(=O)C2CCOCC2)cc1F` [Compound I-243, 3-(4-((1S,4S,5R)-5-((3-(2-chloro-6-methylphenyl)-5-cyclopropylisoxazol-4-1)methoxy)-2-azabicyclo[2.2.1]heptan-2-yl)-3-fluorophenyl)-N-((tetrahydro-2H-pyran-4-yl)sulfonyl)propanamide]: the negative logarithm of the EC50 (pEC50) in assay [1] turned out to be 8.4. For the same compound, the Emax was determined as 182% in assay [1] (setting [3]) and 98% in assay [2] (setting [3]). The concentration for a half-maximal effect (EC50) in assay [2] (setting [4]) was 6.31 nM.

With `O=C(CCc1ccc(N2C[C@@H]3C[C@H]2C[C@H]3OCc2c(-c3c(F)cccc3Cl)noc2C2CC2)c(F)c1)NS(=O)(=O)C1CCOCC1` [Compound I-235, 3-{4-[(1S,4S,5R)-5-{[3-(2-chloro-6-fluorophenyl)-5-cyclopropyl-1,2-oxazol-4-yl]methoxy}-2-azabicyclo[2.2.1]heptan-2-yl]-3-fluorophenyl}-N-(oxane-4-sulfonyl)propanamide], the pEC50 in assay [1] was determined as 8.2. Also, the values for the Emax in assay [1] (setting [3]) and in assay [2] (setting [3]) were 176% and 94%, respectively. In assay [2] (setting [4]), this compound showed an EC50 of 3.98 nM.

In turn, `Fc1cc(-c2nn[nH]n2)ccc1N1C[C@@H]2C[C@H]1C[C@H]2OCc1c(-c2c(Cl)cccc2Cl)noc1C1CC1` [Compound I-134, (1S,4S,5R)-5-{[5-cyclopropyl-3-(2,6-dichlorophenyl)-1,2-oxazol-4-yl]methoxy}-2-[2-fluoro-4-(2H-1,2,3,4-tetrazol-5-yl)phenyl]-2-azabicyclo[2.2.1]heptane] gave a negative logarithm of the EC50 (pEC50) in assay [1] of 8.2. Further, the Emax in assay [1] (setting [3]) was determined as 156%; in assay [2] (setting [3]), 104%. In assay [2] (setting [4]), this compound showed an EC50 of 0.794 nM.

Compound `O=C(O)c1ccc(N2C[C@@H]3C[C@H]2C[C@H]3OC(=O)c2c(-c3c(Cl)cccc3Cl)noc2C2(F)CC2)c(F)c1` [Compound I-44, 4-[(1S,4S,5R)-5-[3-(2,6-dichlorophenyl)-5-(1-fluorocyclopropyl)-1,2-oxazole-4-carbonyloxy]-2-azabicyclo[2.2.1]heptan-2-yl]-3-fluorobenzoic Acid] showed a pEC50 in assay [1] of 7.6. For the same compound, the Emax in assay [1] (setting [3]) came to 152%; in assay [2] (setting [3]), 107%. Also, in assay [2] (setting [4]), the concentration giving a half-maximal response (EC50) was 10 nM.

`Cc1cccc(F)c1-c1noc(C2CC2)c1CO[C@@H]1C[C@@H]2C[C@H]1C(=O)N2c1ccc(C(=O)O)cc1` [Compound I-307, 4-[(1S,4R,5R)-5-{[5-cyclopropyl-3-(2-fluoro-6-methylphenyl)-1,2-oxazol-4-yl]methoxy}-3-oxo-2-azabicyclo[2.2.1]heptan-2-yl]benzoic Acid] returned a pEC50 in assay [1] of 7.4. In addition, the Emax in assay [1] (setting [3]) turned out to be 154%; in assay [2] (setting [3]) it was 110%. For the same compound, the EC50 in assay [2] (setting [4]) was 10 nM.

In assay [1], `CC1(C)CC(S(=O)(=O)NC(=O)c2ccc(N3C(=O)[C@@H]4C[C@H]3C[C@H]4OCc3c(-c4c(Cl)cccc4Cl)noc3C3CC3)cc2F)CCO1` (stereo partly drawn) [Compound I-330, 4-[(1S,4R,5R)-5-{[5-cyclopropyl-3-(2,6-dichlorophenyl)-1,2-oxazol-4-yl]methoxy}-3-oxo-2-azabicyclo[2.2.1]heptan-2-yl]-N-[(2,2-dimethyloxan-4-yl)sulfonyl]-2-fluorobenzamide] yielded a pEC50 of 8.8. The Emax in assay [1] (setting [3]) stood at 156%; in assay [2] (setting [3]), 120%. The compound further had a concentration giving a half-maximal response (EC50) in assay [2] (setting [4]) of 0.158 nM.
